Measurements reported in ChEMBL document CHEMBL1136778, “Mitomycin antitumor compounds. 2. Interaction of transition metal ions with mitomycin C. Solution structure and biological activity of a Pd(2+)-MMC complex” (J Med Chem, 2003).

Tests used:
K562 [1] = test: In vitro inhibitory activity against K562 leukemia cells; type: functional, cell-based; details: Homo sapiens
K562 [2] = test: In vitro inhibitory activity against K562 leukemia cells in the presence of pd2; type: functional, cell-based; details: Homo sapiens

SMILES	IC50 (K562 [1])	IC50 (K562 [2])
CC1=C(N)C(=O)c2c(COC(N)=O)c3n(c2C1=O)C[C@H](N)[C@@H]3O	33 nM	–
CO[C@@]12[C@H](COC(N)=O)C3=C(C(=O)C(C)=C(N)C3=O)N1C[C@@H]1N[C@@H]12 [MITOMYCIN]	1 nM	15.8 nM
